Experimental data: DBAASP
Values after ≈ are worked out from the molar mass of the structure shown.

What was measured:
[1] = system: Escherichia coli ATCC 25922; assay: ≥ marks a high value that may be exact or a test limit, other limits are often not marked, values filed in µg/mL are converted to µM
[2] = system: Staphylococcus aureus ATCC 25923; assay: as above

Structure (SMILES) | MIC [1] | MIC [2]
CC[C@H](C)[C@H](NC(=O)[C@H](CCCN=C(N)N)NC(=O)[C@H](Cc1c[nH]c2ccccc12)NC(=O)[C@@H](N)Cc1ccccc1)C(=O)N[C@@H](CCCN=C(N)N)C(=O)N[C@@H](CCCCN)C(=O)N[C@@H](Cc1c[nH]c2ccccc12)C(=O)N[C@@H](CCCN=C(N)N)C(N)=O [FWRIRKWR] | 25.7 µM (≈ 32 µg/mL) | 
CC[C@H](C)[C@H](NC(=O)CN)C(=O)NCC(=O)N[C@@H](CCCCN)C(=O)N[C@@H](Cc1ccccc1)C(=O)N[C@@H](CC(C)C)C(=O)N[C@@H](Cc1cnc[nH]1)C(=O)N[C@@H](CO)C(=O)N[C@@H](C)C(=O)N[C@@H](CCCCN)C(=O)N[C@@H](CCCCN)C(=O)N[C@@H](Cc1ccccc1)C(=O)NCC(=O)N[C@@H](CCCCN)C(=O)N[C@@H](C)C(=O)N[C@@H](Cc1ccccc1)C(=O)N[C@H](C(=O)NCC(=O)N[C@@H](CCC(=O)O)C(=O)N[C@H](C(=O)N[C@@H](CCSC)C(=O)N[C@@H](CC(N)=O)C(=O)N[C@@H](CO)C(=O)NCC(=O)NCC(=O)N[C@@H](CO)C(N)=O)[C@@H](C)CC)C(C)C [GIGKFLHSAKKFGKAFVGEIMNSGGS] | 2.23 µM (≈ 5.94 µg/mL) | 
CC[C@H](C)[C@H](NC(=O)CN)C(=O)N[C@@H](CC(C)C)C(=O)N[C@@H](CO)C(=O)N[C@H](C(=O)N[C@H](C(=O)N[C@@H](CCCCN)C(=O)N[C@@H](CC(=O)O)C(=O)N[C@@H](Cc1ccccc1)C(=O)N[C@@H](C)C(=O)N[C@H](C(=O)N[C@@H](CCCCN)C(=O)N[C@@H](C)C(=O)NCC(=O)N[C@@H](CCCCN)C(=O)NCC(=O)N[C@@H](C)C(=O)N[C@@H](C)C(=O)N[C@@H](CCCCN)C(=O)NCC(=O)N[C@@H](CC(C)C)C(=O)N[C@@H](CC(C)C)C(=O)N[C@@H](CCC(=O)O)C(=O)N[C@@H](CCSC)C(=O)N[C@@H](C)C(=O)N[C@@H](CO)C(=O)N[C@H]1CSSC[C@@H](C(=O)O)NC(=O)[C@H](CCC(N)=O)NC(=O)CNC(=O)[C@H](CO)NC(=O)[C@H](CC(C)C)NC(=O)[C@H](CCCCN)NC1=O)[C@@H](C)CC)[C@@H](C)CC)[C@@H](C)O [GILSTIKDFAIKAGKGAAKGLLEMASCKLSGQC] | 3 µM (≈ 9.93 µg/mL) | 
CC[C@H](C)[C@H](NC(=O)CN)C(=O)N[C@@H](CCSC)C(=O)N[C@@H](CC(=O)O)C(=O)N[C@H](C(=O)N[C@H](C(=O)N[C@@H](CCCCN)C(=O)N[C@@H](CC(N)=O)C(=O)N[C@H](C(=O)N[C@@H](C)C(=O)N[C@@H](CCCCN)C(=O)N[C@@H](CC(N)=O)C(=O)N[C@@H](CC(C)C)C(=O)N[C@@H](C)C(=O)NCC(=O)N[C@@H](CCC(N)=O)C(=O)N[C@@H](CC(C)C)C(=O)N[C@@H](CC(C)C)C(=O)N[C@@H](CC(=O)O)C(=O)N[C@@H](CCCCN)C(=O)N[C@@H](CC(C)C)C(=O)N[C@@H](CCCCN)C(=O)N[C@H]1CSSC[C@@H](C(=O)O)NC(=O)[C@H](C)NC(=O)[C@H]([C@@H](C)O)NC(=O)[C@H]([C@@H](C)CC)NC(=O)[C@H](CCCCN)NC1=O)C(C)C)C(C)C)[C@@H](C)O [GIMDTVKNVAKNLAGQLLDKLKCKITAC] | 25 µM (≈ 74.7 µg/mL) | 
CC[C@H](C)[C@H](NC(=O)[C@H](CCSC)NC(=O)[C@@H](NC(=O)[C@H](CCC(=O)O)NC(=O)CNC(=O)[C@H](CC(C)C)NC(=O)[C@H](Cc1ccccc1)NC(=O)[C@H](C)NC(=O)[C@H](CCCCN)NC(=O)CNC(=O)[C@H](Cc1ccccc1)NC(=O)[C@H](CCCCN)NC(=O)CNC(=O)[C@H](C)NC(=O)[C@H](CO)NC(=O)[C@H](Cc1cnc[nH]1)NC(=O)[C@H](CC(C)C)NC(=O)[C@H](Cc1ccccc1)NC(=O)[C@H](CCCCN)NC(=O)CN)C(C)C)C(=O)NCC(=O)O [GKFLHSAGKFGKAFLGEVMIG] | > 100 µM | > 100 µM
CC(C)C[C@H](NC(=O)[C@H](Cc1ccccc1)NC(=O)[C@@H]1CCCN1C(=O)[C@H](Cc1c[nH]c2ccccc12)NC(=O)[C@H](Cc1c[nH]c2ccccc12)NC(=O)[C@H](C)NC(=O)[C@@H]1CCCN1C(=O)[C@H](Cc1ccccc1)NC(=O)[C@H](CCCN=C(N)N)NC(=O)[C@H](CCCN=C(N)N)NC(=O)[C@@H](N)C(C)C)C(=O)N[C@@H](CCCN=C(N)N)C(=O)N[C@@H](CCCN=C(N)N)C(N)=O [VRRFPAWWPFLRR] | 45.3 µM (≈ 80.8 µg/mL) | 
